Where two headings read alike, the source gives them in different places.
Assays:
[1] = tested on: Pseudocercosporella herpotrichoides; experiment: In vitro fungicidal activity, Cereal eye spot (PSDCHE); format: cell-based; design: key: 0: None; 3: slight; 5: moderate; 7: severe; 9: complete; details: 3-7 days of incubation
Procedure: (§1) Test compounds are dissolved in acetone to give concentrations of 25, 10 and 1 ppm and are added to individual cell Walls (24-cell-well plates, Corning), which were previously filled with a suspension of ground plates, Corning), which were previously filled with a suspension of ground fungal mycelium in a chemically defined growth medium. After 3-7 days of incubation, inhibition of […] growth is recorded using the following scale: The data obtained are shown in Table II. [table]

Rhizoctonia solani = experiment: In vitro fungicidal activity, Rice sheath blight (RHIZSO); format: cell-based; design: key: 0: None; 3: slight; 5: moderate; 7: severe; 9: complete; details: 3-7 days of incubation
Procedure: as §1

Blumeria graminis = experiment: In vivo fungicidal activity, Wheat powdery mildew (WPM); further: ranges in brackets are in %
Venturia inaequalis = experiment: In vivo fungicidal activity, Apple Scab (AS); further: ranges in brackets are in %
Alternara solani = experiment: In vivo fungicidal activity, Tomato early blight (TEB); further: ranges in brackets are in %
Plasmopara viticola = experiment: In vivo fungicidal activity, Grape downy mildew (GDM); further: ranges in brackets are in %
Botrytis cinera = experiment: In vivo fungicidal activity, Pepper Botrytis (PB); further: ranges in brackets are in %
[2] = tested on: Pyricularia grisea f. sp. oryzae; format: in vivo; details: Rice Blast
Pythium ultimum = experiment: In vitro fungicidal activity, Fruit rot (PYTHUL); format: cell-based; design: key: 0: None; 3: slight; 5: moderate; 7: severe; 9: complete; details: 3-7 days of incubation
Procedure: as §1

Cercospora beticola = experiment: In vivo fungicidal activity, Sugar Beet Cercospora (SBC); further: ranges in brackets are in %

| Compound | WPM disease control rating (Blumeria graminis; 12.5 ppm spray) | WPM disease control rating (Blumeria graminis; 50 ppm spray) | WPM disease control rating (Blumeria graminis; 200 ppm spray) | AS disease control rating (Venturia inaequalis; 12.5 ppm spray) | AS disease control rating (Venturia inaequalis; 50 ppm spray) | AS disease control rating (Venturia inaequalis; 200 ppm spray) | TEB disease control rating (Alternara solani; 12.5 ppm spray) | TEB disease control rating (Alternara solani; 50 ppm spray) | TEB disease control rating (Alternara solani; 200 ppm spray) | GDM disease control rating (Plasmopara viticola; 12.5 ppm spray) | GDM disease control rating (Plasmopara viticola; 50 ppm spray) | GDM disease control rating (Plasmopara viticola; 200 ppm spray) | PB disease control rating (Botrytis cinera; 12.5 ppm spray) | PB disease control rating (Botrytis cinera; 50 ppm spray) | PB disease control rating (Botrytis cinera; 200 ppm spray) | RB disease control rating ([2]; 12.5 ppm spray) | RB disease control rating ([2]; 50 ppm spray) | RB disease control rating ([2]; 200 ppm spray) | SBC disease control rating (Cercospora beticola; 12.5 ppm spray) | SBC disease control rating (Cercospora beticola; 50 ppm spray) | further results |
| --- | --- | --- | --- | --- | --- | --- | --- | --- | --- | --- | --- | --- | --- | --- | --- | --- | --- | --- | --- | --- | --- |
| CCn1c(Cl)c(-c2c(F)cc(F)cc2F)c(=NC(C)C(F)(F)F)n2ncnc12 (stereo not drawn) [Example 3] | 0 (0) | 0 (0) | 3 (30-44) | 0 (0) | 0 (0) | 6 (75-89) | 3 (30-44) | 3 (30-44) | 0 (0) | 0 (0) | 4 (45-59) | 4 (45-59) | 2 (15-29) | 0 (0) | 0 (0) | 0 (0) | 0 (0) | 5 (60-74) | 0 (0) | 0 (0) | PSDCH inhibition of mycelial growth rating ([1]; 1 ppm): 0; PSDCH inhibition of mycelial growth rating ([1]; 10 ppm): 1; PSDCH inhibition of mycelial growth rating ([1]; 25 ppm): 1; RHIZSO inhibition of mycelial growth rating (Rhizoctonia solani; 1 ppm): 3; RHIZSO inhibition of mycelial growth rating (Rhizoctonia solani; 10 ppm): 5; RHIZSO inhibition of mycelial growth rating (Rhizoctonia solani; 25 ppm): 5; PYTHU inhibition of mycelial growth rating (Pythium ultimum; 1 ppm): 0; PYTHU inhibition of mycelial growth rating (Pythium ultimum; 10 ppm): 0; PYTHU inhibition of mycelial growth rating (Pythium ultimum; 25 ppm): 0; SBC disease control rating (Cercospora beticola; 200 ppm spray): 0 (0) |
| CCCn1cnn2c(=NC(C)C(F)(F)F)c(-c3c(F)cc(OC)cc3F)c(Cl)nc12 (stereo not drawn) [Example 12] | 0 (0) | 0 (0) | 0 (0) | 0 (0) | 0 (0) | 0 (0) | 0 (0) | 0 (0) | 0 (0) | 0 (0) | 0 (0) | 0 (0) | 0 (0) | 0 (0) | 0 (0) | 0 (0) | 0 (0) | 0 (0) | 0 (0) | 0 (0) | SBC disease control rating (Cercospora beticola; 200 ppm spray): 0 (0) |
| CCCOc1cc(F)c(-c2c(Cl)nc3n(CCC)cnn3c2=NC(C)C(F)(F)F)c(F)c1 (stereo not drawn) [Example 9] | 2 (15-29) | 6 (75-89) | 7 (90-95) | 0 (0) | 6 (75-89) | 6 (75-89) | 6 (75-89) | 8 (96-99) | 9 (100) | 5 (60-74) | 3 (30-44) | 3 (30-44) | 2 (15-29) | 1 (1-14) | 2 (15-29) | 0 (0) | 3 (30-44) | 4 (45-59) | 8 (96-99) | 8 (96-99) | PSDCH inhibition of mycelial growth rating ([1]; 1 ppm): 3; PSDCH inhibition of mycelial growth rating ([1]; 10 ppm): 3; PSDCH inhibition of mycelial growth rating ([1]; 25 ppm): 5; RHIZSO inhibition of mycelial growth rating (Rhizoctonia solani; 1 ppm): 7; RHIZSO inhibition of mycelial growth rating (Rhizoctonia solani; 10 ppm): 7; RHIZSO inhibition of mycelial growth rating (Rhizoctonia solani; 25 ppm): 7; PYTHU inhibition of mycelial growth rating (Pythium ultimum; 1 ppm): 0; PYTHU inhibition of mycelial growth rating (Pythium ultimum; 10 ppm): 0; PYTHU inhibition of mycelial growth rating (Pythium ultimum; 25 ppm): 0; SBC disease control rating (Cercospora beticola; 200 ppm spray): 8 (96-99) |
| Cn1c(Cl)c(-c2c(F)cc(F)cc2F)c(=NCC(F)(F)F)n2ncnc12 [Example 1A, N-(5-chloro-4-methyl-6-(2,4,6-trifluorophenyl)-4H[1,2,4]triazolo[1,5-α]pyrimidin-7-ylidene]-N-(2,2,2-trifluoroethyl)-amine] | 0 (0) | 7 (90-95) | 8 (96-99) | 0 (0) | 6 (75-89) | 9 (100) | 0 (0) | 0 (0) | 3 (30-44) | 5 (60-74) | 6 (75-89) | 4 (45-59) | 0 (0) | 5 (60-74) | 0 (0) | 0 (0) | 0 (0) | 6 (75-89) | 0 (0) | 6 (75-89) | PSDCH inhibition of mycelial growth rating ([1]; 1 ppm): 0; PSDCH inhibition of mycelial growth rating ([1]; 10 ppm): 0; PSDCH inhibition of mycelial growth rating ([1]; 25 ppm): 0; RHIZSO inhibition of mycelial growth rating (Rhizoctonia solani; 1 ppm): 5; RHIZSO inhibition of mycelial growth rating (Rhizoctonia solani; 10 ppm): 7; RHIZSO inhibition of mycelial growth rating (Rhizoctonia solani; 25 ppm): 7; PYTHU inhibition of mycelial growth rating (Pythium ultimum; 1 ppm): 0; PYTHU inhibition of mycelial growth rating (Pythium ultimum; 10 ppm): 0; PYTHU inhibition of mycelial growth rating (Pythium ultimum; 25 ppm): 0; SBC disease control rating (Cercospora beticola; 200 ppm spray): 8 (96-99) |
| CCCn1c(Cl)c(-c2c(F)cc(OC)cc2F)c(=NC(C)C(F)(F)F)n2ncnc12 (stereo not drawn) [Example 4] | 0 (0) | 0 (0) |  | 0 (0) | 0 (0) |  | 0 (0) | 0 (0) |  | 0 (0) | 0 (0) |  | 0 (0) | 0 (0) |  | 0 (0) | 0 (0) |  | 0 (0) | 0 (0) | WPM disease control rating (Blumeria graminis; 3.1 ppm spray): 0 (0); AS disease control rating (Venturia inaequalis; 3.1 ppm spray): 0 (0); TEB disease control rating (Alternara solani; 3.1 ppm spray): 3 (30-44); GDM disease control rating (Plasmopara viticola; 3.1 ppm spray): 4 (45-59); PB disease control rating (Botrytis cinera; 3.1 ppm spray): 0 (0); RB disease control rating ([2]; 3.1 ppm spray): 0 (0); SBC disease control rating (Cercospora beticola; 3.1 ppm spray): 0 (0) |
| CCCn1c(Cl)c(-c2c(F)cc(F)cc2F)c(=NC(C)C(F)(F)F)n2ncnc12 (stereo not drawn) [Example 2] | 0 (0) | 0 (0) | 0 (0) | 0 (0) | 0 (0) | 5 (60-74) | 0 (0) | 0 (0) | 0 (0) | 4 (45-59) | 2 (15-29) | 1 (1-14) | 1 (1-14) | 1 (1-14) | 1 (1-14) | 0 (0) | 0 (0) | 0 (0) | 0 (0) | 0 (0) | SBC disease control rating (Cercospora beticola; 200 ppm spray): 3 (30-44) |

From patent publication US6747033B2, “Fungicidal triazolopyrimid-7-ylideneamines” (BASF Aktiengesellschaft, priority 2000, dated 2004)
